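Test compounds were applied to cells in 96-well plates for 48 hours at 5 doses. GI50: concentration for 50% inhibition of growth.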 The source made the active and inactive calls. Cut-off read from the data, not from the text of the source: active = GI50 up to about 1.1 µM and inactive = higher.
Key:
Assay in all cases: DTP human tumour cell line panel, 48 h
HCT-15 = test system: HCT-15
CAKI-1 = test system: CAKI-1
HCT-116 = test system: HCT-116
NCI-H23 = test system: NCI-H23
SW-620 = test system: SW-620
TK-10 = test system: TK-10
UACC-257 = test system: UACC-257
MCF7 = test system: MCF7
CCRF-CEM = test system: CCRF-CEM
NCI/ADR-RES = test system: NCI/ADR-RES
MOLT-4 = test system: MOLT-4
NCI-H226 = test system: NCI-H226
HCC 2998 = test system: HCC 2998
A498 = test system: A498
EKVX = test system: EKVX
BT-549 = test system: BT-549
SF-295 = test system: SF-295
OVCAR-3 = test system: OVCAR-3
PC-3 = test system: PC-3
RPMI-8226 = test system: RPMI-8226
SNB-19 = test system: SNB-19
ACHN = test system: ACHN
HL-60 = test system: HL-60
MDA-N = test system: MDA-N
HOP-92 = test system: HOP-92
KM12 = test system: KM12
UO-31 = test system: UO-31
U-251 = test system: U-251
M14 = test system: M14
K562 = test system: K562
RXF 393 = test system: RXF 393
HT-29 = test system: HT-29
NCI-H460 = test system: NCI-H460
OVCAR-8 = test system: OVCAR-8
NCI-H522 = test system: NCI-H522
HOP-62 = test system: HOP-62
MDA-MB-231 = test system: MDA-MB-231
Hs-578T = test system: Hs-578T
786-0 = test system: 786-0
SN12C = test system: SN12C
SK-MEL-28 = test system: SK-MEL-28
SK-MEL-2 = test system: SK-MEL-2
SF-539 = test system: SF-539
Malme-3M = test system: Malme-3M
MDA-MB-435 = test system: MDA-MB-435
A549 = test system: A549
LOX IMVI = test system: LOX IMVI
OVCAR-4 = test system: OVCAR-4
T47D = test system: T47D
COLO 205 = test system: COLO 205
IGROV-1 = test system: IGROV-1
DU-145 = test system: DU-145
SK-OV-3 = test system: SK-OV-3
UACC-62 = test system: UACC-62
SF-268 = test system: SF-268
OVCAR-5 = test system: OVCAR-5
SK-MEL-5 = test system: SK-MEL-5
SNB-75 = test system: SNB-75

Structure (SMILES): O=c1c(Cc2ccc(Cl)cc2)nnc2sc(-c3ccc(-c4ccc(Cl)cc4Cl)o3)nn12
- GI50 (HCT-15): 41.4 µM
- GI50 (CAKI-1): 73.5 µM (inactive)
- GI50 (HCT-116): 27.5 µM (inactive)
- GI50 (NCI-H23): 66.5 µM (inactive)
- GI50 (SW-620): > 100 µM (inactive)
- GI50 (TK-10): > 100 µM (inactive)
- GI50 (UACC-257): > 100 µM (inactive)
- GI50 (MCF7): 30.5 µM (inactive)
- GI50 (CCRF-CEM): 61.7 µM (inactive)
- GI50 (NCI/ADR-RES): 80.5 µM (inactive)
- GI50 (MOLT-4): 43.7 µM (inactive)
- GI50 (NCI-H226): > 100 µM (inactive)
- GI50 (HCC 2998): 49.5 µM (inactive)
- GI50 (A498): 41.5 µM (inactive)
- GI50 (EKVX): 29.4 µM (inactive)
- GI50 (BT-549): > 100 µM (inactive)
- GI50 (SF-295): 83.6 µM (inactive)
- GI50 (OVCAR-3): 34 µM (inactive)
- GI50 (PC-3): 79.8 µM (inactive)
- GI50 (RPMI-8226): > 100 µM (inactive)
- GI50 (SNB-19): 33.3 µM (inactive)
- GI50 (ACHN): 52 µM (inactive)
- GI50 (HL-60): 23.2 µM (inactive)
- GI50 (MDA-N): 48 µM (inactive)
- GI50 (HOP-92): 38.5 µM (inactive)
- GI50 (KM12): 76.6 µM (inactive)
- GI50 (UO-31): 57.8 µM (inactive)
- GI50 (U-251): 31 µM (inactive)
- GI50 (M14): 95.5 µM (inactive)
- GI50 (K562): 89.9 µM (inactive)
- GI50 (RXF 393): 53.8 µM (inactive)
- GI50 (HT-29): 64.1 µM (inactive)
- GI50 (NCI-H460): 59.6 µM (inactive)
- GI50 (OVCAR-8): 48.6 µM (inactive)
- GI50 (NCI-H522): 52.8 µM (inactive)
- GI50 (HOP-62): 43.2 µM (inactive)
- GI50 (MDA-MB-231): 93.3 µM (inactive)
- GI50 (Hs-578T): > 100 µM (inactive)
- GI50 (786-0): 48 µM (inactive)
- GI50 (SN12C): 44.6 µM (inactive)
- GI50 (SK-MEL-28): > 100 µM (inactive)
- GI50 (SK-MEL-2): 36.7 µM (inactive)
- GI50 (SF-539): 85.7 µM (inactive)
- GI50 (Malme-3M): > 100 µM (inactive)
- GI50 (MDA-MB-435): 71 µM (inactive)
- GI50 (A549): 80.5 µM (inactive)
- GI50 (LOX IMVI): 47.1 µM (inactive)
- GI50 (OVCAR-4): 42.9 µM (inactive)
- GI50 (T47D): 74.5 µM (inactive)
- GI50 (COLO 205): 72.3 µM (inactive)
- GI50 (IGROV-1): > 100 µM (inactive)
- GI50 (DU-145): 70 µM (inactive)
- GI50 (SK-OV-3): > 100 µM (inactive)
- GI50 (UACC-62): 63.1 µM (inactive)
- GI50 (SF-268): > 100 µM (inactive)
- GI50 (OVCAR-5): 94.8 µM (inactive)
- GI50 (SK-MEL-5): > 100 µM (inactive)

Structure (SMILES): CC1=CC(=O)/C(=C/N2CCNC2=S)C(=O)O1
- GI50 (HCT-15): > 100 µM
- GI50 (CAKI-1): > 100 µM (inactive)
- GI50 (HCT-116): > 100 µM (inactive)
- GI50 (NCI-H23): > 100 µM (inactive)
- GI50 (SW-620): > 100 µM (inactive)
- GI50 (TK-10): > 100 µM (inactive)
- GI50 (UACC-257): > 100 µM (inactive)
- GI50 (MCF7): > 100 µM (inactive)
- GI50 (CCRF-CEM): > 100 µM (inactive)
- GI50 (NCI/ADR-RES): > 100 µM (inactive)
- GI50 (MOLT-4): > 100 µM (inactive)
- GI50 (NCI-H226): > 100 µM (inactive)
- GI50 (HCC 2998): > 100 µM (inactive)
- GI50 (A498): > 100 µM (inactive)
- GI50 (EKVX): > 100 µM (inactive)
- GI50 (BT-549): > 100 µM (inactive)
- GI50 (SF-295): > 100 µM (inactive)
- GI50 (PC-3): > 100 µM (inactive)
- GI50 (RPMI-8226): > 100 µM (inactive)
- GI50 (SNB-19): > 100 µM (inactive)
- GI50 (ACHN): > 100 µM (inactive)
- GI50 (HL-60): > 100 µM (inactive)
- GI50 (MDA-N): > 100 µM (inactive)
- GI50 (HOP-92): > 100 µM (inactive)
- GI50 (KM12): > 100 µM (inactive)
- GI50 (SNB-75): 89.7 µM (inactive)
- GI50 (UO-31): > 100 µM (inactive)
- GI50 (U-251): > 100 µM (inactive)
- GI50 (M14): > 100 µM (inactive)
- GI50 (K562): > 100 µM (inactive)
- GI50 (RXF 393): > 100 µM (inactive)
- GI50 (HT-29): > 100 µM (inactive)
- GI50 (NCI-H460): > 100 µM (inactive)
- GI50 (OVCAR-8): > 100 µM (inactive)
- GI50 (NCI-H522): > 100 µM (inactive)
- GI50 (HOP-62): > 100 µM (inactive)
- GI50 (MDA-MB-231): > 100 µM (inactive)
- GI50 (Hs-578T): > 100 µM (inactive)
- GI50 (786-0): > 100 µM (inactive)
- GI50 (SN12C): > 100 µM (inactive)
- GI50 (SK-MEL-2): > 100 µM (inactive)
- GI50 (SF-539): > 100 µM (inactive)
- GI50 (MDA-MB-435): > 100 µM (inactive)
- GI50 (A549): > 100 µM (inactive)
- GI50 (LOX IMVI): > 100 µM (inactive)
- GI50 (OVCAR-4): > 100 µM (inactive)
- GI50 (T47D): > 100 µM (inactive)
- GI50 (COLO 205): > 100 µM (inactive)
- GI50 (IGROV-1): > 100 µM (inactive)
- GI50 (DU-145): > 100 µM (inactive)
- GI50 (SK-OV-3): > 100 µM (inactive)
- GI50 (UACC-62): > 100 µM (inactive)
- GI50 (SF-268): > 100 µM (inactive)
- GI50 (OVCAR-5): > 100 µM (inactive)
- GI50 (SK-MEL-5): 97.3 µM (inactive)

Structure (SMILES): CSc1nc(Br)nc2c1ncn2C1CC(Oc2ccc(C)cc2)C(COc2ccc(C)cc2)O1 (configuration not stated)
- GI50 (HCT-15): > 100 µM
- GI50 (CAKI-1): > 100 µM (inactive)
- GI50 (HCT-116): > 100 µM (inactive)
- GI50 (NCI-H23): 40.8 µM (inactive)
- GI50 (SW-620): > 100 µM (inactive)
- GI50 (TK-10): > 100 µM (inactive)
- GI50 (UACC-257): > 100 µM (inactive)
- GI50 (MCF7): > 100 µM (inactive)
- GI50 (CCRF-CEM): > 100 µM (inactive)
- GI50 (NCI/ADR-RES): > 100 µM (inactive)
- GI50 (MOLT-4): > 100 µM (inactive)
- GI50 (NCI-H226): > 100 µM (inactive)
- GI50 (HCC 2998): > 100 µM (inactive)
- GI50 (A498): > 100 µM (inactive)
- GI50 (EKVX): > 100 µM (inactive)
- GI50 (BT-549): > 100 µM (inactive)
- GI50 (SF-295): > 100 µM (inactive)
- GI50 (OVCAR-3): > 100 µM (inactive)
- GI50 (PC-3): > 100 µM (inactive)
- GI50 (RPMI-8226): 93.8 µM (inactive)
- GI50 (SNB-19): 22.5 µM (inactive)
- GI50 (ACHN): 33.7 µM (inactive)
- GI50 (HL-60): > 100 µM (inactive)
- GI50 (MDA-N): > 100 µM (inactive)
- GI50 (HOP-92): > 100 µM (inactive)
- GI50 (KM12): > 100 µM (inactive)
- GI50 (SNB-75): 23.3 µM (inactive)
- GI50 (U-251): > 100 µM (inactive)
- GI50 (M14): > 100 µM (inactive)
- GI50 (HT-29): > 100 µM (inactive)
- GI50 (NCI-H460): > 100 µM (inactive)
- GI50 (OVCAR-8): > 100 µM (inactive)
- GI50 (NCI-H522): > 100 µM (inactive)
- GI50 (HOP-62): > 100 µM (inactive)
- GI50 (MDA-MB-231): 61.2 µM (inactive)
- GI50 (Hs-578T): 25.2 µM (inactive)
- GI50 (786-0): > 100 µM (inactive)
- GI50 (SN12C): > 100 µM (inactive)
- GI50 (SK-MEL-28): > 100 µM (inactive)
- GI50 (SK-MEL-2): > 100 µM (inactive)
- GI50 (SF-539): > 100 µM (inactive)
- GI50 (Malme-3M): > 100 µM (inactive)
- GI50 (MDA-MB-435): > 100 µM (inactive)
- GI50 (A549): > 100 µM (inactive)
- GI50 (LOX IMVI): > 100 µM (inactive)
- GI50 (OVCAR-4): 83 µM (inactive)
- GI50 (T47D): > 100 µM (inactive)
- GI50 (COLO 205): > 100 µM (inactive)
- GI50 (IGROV-1): > 100 µM (inactive)
- GI50 (DU-145): > 100 µM (inactive)
- GI50 (SK-OV-3): > 100 µM (inactive)
- GI50 (UACC-62): > 100 µM (inactive)
- GI50 (SF-268): > 100 µM (inactive)
- GI50 (OVCAR-5): > 100 µM (inactive)
- GI50 (SK-MEL-5): > 100 µM (inactive)
